Laboratory results: patent publication US11858946B2, “Small molecules active against gram-negative bacteria” (The Board of Trustees of the University of Illinois, priority 2016, dated 2024)
≈ marks a conversion by molar mass, not a printed value. Like-named read-outs stand apart in the source and are kept apart here.

Experiments:
Staphylococcus aureus = test: Antibiotic susceptibility test (microdilution broth), S. aureus; type: cell-based
[1] = test system: E. coli, Acinetobacter baumannii, Klebsiella pneumoniae, Enterobacter cloacae, and Pseudomonas aeruginosa; test: Antibiotic susceptibility test (microdilution broth), expanded panel of Gram-negative pathogens; type: cell-based; details: for activity against expanded panel of Gram-negative pathogens (in words): laboratory strains and clinical isolates of ESKAPE pathogens
Method: (§1) 6DNM and its derivatives were further evaluated against an expanded panel of Gram-negative pathogens, laboratory strains and clinical isolates of ESKAPE pathogens E. coli, Acinetobacter baumannii, Klebsiella pneumoniae, Enterobacter cloacae, and Pseudomonas aeruginosa (Table 1 of FIG. 19).
(§2) Susceptibility testing was performed in triplicate, using the microdilution broth method as outlined by the Clinical and Laboratory Standards Institute. Mueller Hinton (MH) broth was used.

E. coli MG1655 [2] = test: Antibiotic susceptibility test (microdilution broth), E. coli MG1655; type: cell-based, Escherichia coli; details: for MIC: Escherichia coli
Method: as §1, §2

E. coli (ATCC BAA-2469) = test: Antibiotic susceptibility test (microdilution broth), NDM-1 producing E. coli clinical isolate; type: cell-based; details: Escherichia coli, ATCCBAA2469, read-out: MIC against multi-drug resistant NDM-1 producing E. coli ATCC BAA-2469
Method: as §1, §2

E. coli MG1655 [3] = test: Accumulation assay in whole-cell E. coli, LC-MS/MS quantification; details: for accumulation in E. coli: E. coli MG1655 whole cells, 37° C., LC-MS/MS; for accumulation in E. coli / accumulation in E. coli (in words): 50 μM compound, 10 minutes; for accumulation in E. coli (in words): E. coli whole cells; for accumulation upon co-treatment with colistin: E. coli, 6.0 μM colistin sulfate added before compound
Excerpt: Antimicrob. Agents Chemother. 36, 2622-2627, (1992); Davis, T. D., Gerry, C. J. & Tan, D. S. General platform for systematic quantitative evaluation of small-molecule permeability in bacteria. ACS Chem. Biol. 9, 2535-2544, (2014); and Cai, H., Rose, K., Liang, L. H., Dunham, S. & Stover, C. Development of a liquid chromatography/mass spectrometry-based drug accumulation assay in Pseudomonas aeruginosa. Anal. Biochem. 385, 321-325, (2009); with LC-MS/MS used to quantify the accumulation of each compound. E. coli MG1655 was utilized for these experiments as this strain has been only minimally altered from its K-12 progenitor. To ensure the assay was reporting on compound accumulation, as opposed to non-specific affinity for the outer membrane, several control experiments were conducted. The assay method was evaluated with antibiotics that have known high or low levels of accumulation, based on published accumulation data and antibacterial activity against E. coli. […] Colistin is known to potentiate the activity of low-accumulating antibiotics by aiding the diffusion of lipophilic compounds across the membrane.
For each replicate, 2.5 mL of an overnight culture of E. coli was diluted into 250 mL of fresh Luria Bertani (LB) broth (Lennox) and grown at 37° C. with shaking to an OD600=0.55. The bacteria were pelleted at 3,220 rcf for 10 minutes at 4° C. and the supernatant was discarded. The pellets were re-suspended in 40 mL of phosphate buffered saline (PBS) and pelleted as before, and the supernatant was discarded. The pellets were re-suspended in 8.8 mL of fresh PBS and aliquoted into ten 1.5 mL eppendorf tubes (875 μL each). The number of colony forming units (CFUs) was determined via a calibration curve. The samples were equilibrated at 37° C. with shaking for 5 minutes, compound was added ([final]=50 μM), and then samples were incubated at 37° C. with shaking for 10 minutes. […] After incubation, 800 μL of the cultures were carefully layered on 700 μL of silicone oil (9:1 AR20/Sigma High Temperature, cooled to −78° C.). Bacteria were pelleted through the oil by centrifuging at 13,000 rcf for 2 minutes at room temperature (supernatant remains above the oil); the supernatant and oil were then removed by pipetting. To lyse the samples, each pellet was dissolved in 200 μL of water, and then they were subjected to three freeze-thaw cycle of three minutes in liquid nitrogen followed by three minutes in a water bath at 65° C. The lysates were pelleted at 13,000 rcf for 2 minutes at room temperature and the supernatant was collected (180 μL). The debris was re-suspended in 100 μL of methanol and pelleted as before. The supernatants were removed and combined with the previous supernatants collected. Finally, remaining debris was removed by centrifuging at 20,000 rcf for 10 minutes at room temperature. Supernatants were analyzed by LC-MS/MS.
Samples were analyzed with the 5500 QTRAP LC/MS/MS system (AB Sciex, Foster City, CA) with a 1200 series HPLC system (Agilent Technologies, Santa Clara, CA) including a degasser, an autosampler, and a binary pump. The LC separation was performed on an Agilent SB-Aq column (4.6×50 mm, 5 μm) (Agilent Technologies, Santa Clara, CA) with mobile phase A (0.1% formic acid in water) and mobile phase B (0.1% formic acid in acetonitrile). The flow rate was 0.3 mL/min. The linear gradient was as follows: 0-3 min, 100% A; 10-15 min, 2% A; 15.5-21 min, 100% A. The autosampler was set at 5° C. The injection volume was 15 μL. Mass spectra were acquired with both positive electrospray ionization (ESI) at the ion spray voltage of 5500 V and negative ESI at the ion spray voltage of −4500 V. The source temperature was 450° C. The curtain gas, ion source gas 1, and ion source gas 2 were 33, 50, and 65, respectively.

[4] = test system: ΔompR strain of E. coli (OmpF and OmpC knockout) vs parental E. coli BW25113
Excerpt: A ΔompR strain of E. coli from the KEIO knockout collection was therefore chosen to effectively knockout both OmpF and OmpC (knockout was validated by analyzing the outer membrane proteins of the ΔompR strain compared to the parental strain, data not shown).

For `Cc1cc(=O)n(C)c2c3c4c(cc12)c(C)cc(=O)n4C(CN)CO3` (centres unmarked) [Compound 6DNM-NH3], the “activity against S. aureus (in words)” value (Staphylococcus aureus) was “retains activity”, the “activity against other clinical isolates of E. coli, A. baumannii, K. pneumonia, and E. cloacae (in words)” value ([1]; clinical isolates) was “good activity against most of the other clinical isolates” and the “activity against expanded panel of Gram-negative pathogens (in words)” value [1] was “antibacterial activity against all of these Gram-negative pathogens except P. aeruginosa”. For the same molecule, the MIC (E. coli MG1655 [2]; MG1655, microdilution broth, MH broth, read-out: MIC against E. coli MG1655) was 0.5 µg/mL (≈ 1.54 µM), the MIC (E. coli (ATCC BAA-2469)) was 4 µg/mL (≈ 12.3 µM) and the “accumulation in E. coli” value (E. coli MG1655 [3]) was 1114 nmol/10^12 CFUs. For the same molecule, the “accumulation in ΔompR strain compared to parental/WT strain” value [4] was “decrease in accumulation”.
`Cc1cc(=O)n(C)c2c3c4c(cc12)c(C)cc(=O)n4C(CC(=O)O)CO3` (centres unmarked) [Compound 6DNM-acid] was tested, and the “activity against E. coli (in words)” value (E. coli MG1655 [2]) was “no activity” and the “accumulation in E. coli (in words)” value (E. coli MG1655 [3]) was “do not accumulate”.
In the case of `CC(=O)NCC1COc2c3c(cc4c(C)cc(=O)n1c24)c(C)cc(=O)n3C` (centres unmarked) [Compound 6DNM-amide], the “activity against E. coli (in words)” value (E. coli MG1655 [2]) is reported as “no activity” and the “accumulation in E. coli (in words)” value (E. coli MG1655 [3]) is reported as “do not accumulate”.
`Cc1cc(=O)n(C)c2c3c4c(cc12)c(C)cc(=O)n4CCO3` [Compound 6DNM] was tested, and the MIC (Staphylococcus aureus; Staphylococcus aureus, microdilution broth, MH broth, read-out: MIC against Staphylococcus aureus) was 0.06 to 1 µg/mL (≈ 0.202 to 3.37 µM), the “activity against expanded panel of Gram-negative pathogens (in words)” value [1] was “no notable activity” and the MIC (E. coli MG1655 [2]; MG1655, read-out: MIC versus E. coli) was > 32 µg/mL. The “accumulation in E. coli” value (E. coli MG1655 [3]) was 298 nmol/10^12 CFUs.
In the case of `NC1COC2C(O)COC12` (centres unmarked) [Compound 20, mono-amine isomannide], the “accumulation in E. coli (in words)” value (E. coli MG1655 [3]) is reported as “does not accumulate”.
With `O=C(O)c1cn(C2CC2)c2cc(N3CCNCC3)c(F)cc2c1=O` [ciprofloxacin, reference compound] the “reduction of CFUs during accumulation assay (factor)” value (E. coli MG1655 [3]; treatment for 10 minutes, 50 μM) was “five” and the “accumulation in ΔompR strain compared to parental/WT strain” value [4] was “significant decrease in accumulation”.
In the case of `CO[C@@H]1[C@@H](OC(N)=O)[C@@H](O)[C@H](Oc2ccc3c(O)c(NC(=O)c4ccc(O)c(CC=C(C)C)c4)c(=O)oc3c2C)OC1(C)C` [novobiocin, reference compound], the “accumulation upon co-treatment with colistin” value (E. coli MG1655 [3]) is reported as “increase in accumulation”.
With `CO[C@H]1/C=C/O[C@@]2(C)Oc3c(C)c(O)c4c(O)c(c(/C=N/N5CCN(C)CC5)c(O)c4c3C2=O)NC(=O)/C(C)=C\C=C\[C@H](C)[C@H](O)[C@@H](C)[C@@H](O)[C@@H](C)[C@H](OC(C)=O)[C@@H]1C` [rifampicin, reference compound] the “accumulation upon co-treatment with colistin” value (E. coli MG1655 [3]) was “increase in accumulation”.
